Test results published in US20260273072A1, “NOVEL PLK1 DEGRADATION INDUCING COMPOUND” (UPPTHERA, INC., priority 2023, published 2026).

Key:
Type in all cases: cell-based
PLK1 = molecular target: T1, PLK1 (Homo sapiens, UniProt P53350); test: Luciferase assay for PLK1 in HeLa LgBit (Plk1-HiBit KI) cell line; conditions: 300 nM compound, luminescence after 9 hours
T1 construct: endogenous in cells; host or cells: HeLa LgBit (Plk1-HiBit KI): HeLa stably expressing LgBit, with a CRISPR/Cas9 knock-in of HiBit at the endogenous PLK1 locus
T1 sequence (P53350 whole entry): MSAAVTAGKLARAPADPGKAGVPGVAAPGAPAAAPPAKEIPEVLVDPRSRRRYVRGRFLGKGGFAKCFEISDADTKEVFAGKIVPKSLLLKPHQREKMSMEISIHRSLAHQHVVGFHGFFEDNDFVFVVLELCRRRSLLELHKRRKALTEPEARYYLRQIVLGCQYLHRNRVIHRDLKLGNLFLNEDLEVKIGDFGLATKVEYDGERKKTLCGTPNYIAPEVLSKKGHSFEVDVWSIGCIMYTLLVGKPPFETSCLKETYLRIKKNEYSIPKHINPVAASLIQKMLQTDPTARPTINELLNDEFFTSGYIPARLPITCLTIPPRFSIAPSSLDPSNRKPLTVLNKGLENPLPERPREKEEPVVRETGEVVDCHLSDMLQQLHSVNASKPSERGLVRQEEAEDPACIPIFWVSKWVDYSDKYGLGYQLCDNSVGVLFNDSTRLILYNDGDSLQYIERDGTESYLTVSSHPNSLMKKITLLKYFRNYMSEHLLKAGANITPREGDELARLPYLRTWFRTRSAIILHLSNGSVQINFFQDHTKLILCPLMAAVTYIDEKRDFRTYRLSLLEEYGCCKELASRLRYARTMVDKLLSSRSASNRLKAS
How it was run: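 Compounds (300 nM) were added with Endurazine to thymidine-synchronised cells (2 mM, 24 h block, then release and 18 h culture), and luminescence at 470-480 nm was followed live. Cells: HeLa stably expressing LgBit, HiBit knocked into native PLK1 C-terminus. Value: luminescence ratio versus DMSO control.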

NCI-H526 cell line = test: Cell viability assay for NCI-H526 cell line (EZ-Cytox); conditions: Homo sapiens, NCI-H526, 120 h; H526 cells, 5 days, 3000 nM to 0.46 nM
How it was run: (§1)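 IC50 values are binned (A: <30 nM, B: <50 nM, C: <100 nM, D: <200 nM, E: <400 nM) from EZ-Cytox read-outs. Cells were exposed to compound for 5 days, then shaken 3 min and absorbance taken at […].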

NCI-H69 cell line = test: Cell viability assay for NCI-H69 cell line (EZ-Cytox); conditions: Homo sapiens, NCI-H69, 120 h; H69 cells, 5 days, 3000 nM to 0.46 nM
How it was run: as §1

MRC-5 cell line = test: Cell viability assay for MRC-5 cell line (EZ-Cytox); conditions: Homo sapiens, MRC5, 120 h; MRC-5 normal cell line, 5 days, 10000 nM to 1.52 nM; read-out: Activity: IC50 value, cell viability, MRC-5 cell line (Exemplary Compounds)
Description: 4. Cell Viability Assay for MRC-5 Cell Line
(1) Culture of MRC-5 Cell Line
The MRC-5 cell line was purchased from KCLB. Passage of cultured cells was maintained within P15.
(2) Treatment of Compounds of the Present Invention
Then, it was cultured in 37° C. CO2 incubator (Thermo Fisher Scientific) for 5 days.
(3) Cytotoxicity Experiment
CO2 incubator for 4 hours.

SMILES	Activity: ratio of the luminescence value of compound treatment group to DMSO treatment group (PLK1)	IC50 (NCI-H526 cell line) [nM]	IC50 (NCI-H69 cell line) [nM]	IC50 (MRC-5 cell line) [nM]
COc1cc(C(=O)NN2CCC(CCN3CCN(c4cc(F)c(NC5CCC(=O)NC5=O)cc4F)CC3)CC2)c(F)cc1Nc1ncc2c(n1)N(C(C)C)CC(F)(F)C(=O)N2C (stereo not drawn) [Compound 60, 4-((7,7-difluoro-9-isopropyl-5-methyl-6-oxo-6,7,8,9-tetrahydro-5H-pyrimido[4,5-b][1,4]diazepin-2-yl)amino)-N-(4-(2-(4-(4-((2,6-dioxopiperidin-3-yl)amino)-2,5-difluorophenyl)piperazin-1-yl)ethyl)piperidin-1-yl)-2-fluoro-5-methoxybenzamide]	++ (++: <0.5)	< 50	< 50	> 10000
COc1cc(N2CCN(CCC3CCN(NC(=O)c4cc(F)c(Nc5ncc6c(n5)N(C(C)C)CC(F)(F)C(=O)N6C)cc4OC)CC3)CC2)c(F)cc1NC1CCC(=O)NC1=O (stereo not drawn) [Compound 45, 4-((7,7-difluoro-9-isopropyl-5-methyl-6-oxo-6,7,8,9-tetrahydro-5H-pyrimido[4,5-b][1,4]diazepin-2-yl)amino)-N-(4-(2-(4-(4-((2,6-dioxopiperidin-3-yl)amino)-2-fluoro-5-methoxyphenyl)piperazin-1-yl)ethyl)piperidin-1-yl)-5-fluoro-2-methoxybenzamide]	++ (++: <0.5)	< 200	< 200	> 10000
COc1cc(C(=O)NN2CCC(CCN3CCN(c4cc(C#N)c(NC5CCC(=O)NC5=O)cc4F)CC3)CC2)ccc1Nc1ncc2c(n1)N(C1CCCC1)CC(F)(F)C(=O)N2C (stereo not drawn) [Compound 76, N(4-(2-(4-(5-cyano-4-((2,6-dioxopiperidin-3-yl)amino)-2-fluorophenyl)piperazin-1-yl)ethyl)piperidin-1-yl)-4-((9-cyclopentyl-7,7-difluoro-5-methyl-6-oxo-6,7,8,9-tetrahydro-5H-pyrimido[4,5-b][1,4]diazepin-2-yl)amino)-3-methoxybenzamide]	++ (++: <0.5)	< 30	< 30	> 10000
COc1cc(C(=O)NN2CCC(CCN3CCN(c4cc(F)c(NC5CCC(=O)NC5=O)cc4F)CC3)CC2)ccc1Nc1ncc2c(n1)N(C1CCCC1)CC(F)(F)C(=O)N2C (stereo not drawn) [Compound 57, 4-((9-cyclopentyl-7,7-difluoro-5-methyl-6-oxo-6,7,8,9-tetrahydro-5H-pyrimido[4,5-b][1,4]diazepin-2-yl)amino)-N-(4-(2-(4-(4-((2,6-dioxopiperidin-3-yl)amino)-2,5-difluorophenyl)piperazin-1-yl)ethyl)piperidin-1-yl)-3-methoxybenzamide]	+++ (+++: <0.3)	< 30	< 30	> 10000
COc1cc(C(=O)NC2CCN(CCN3CCN(c4cc(Cl)c(NC5CCC(=O)NC5=O)cc4F)CC3)CC2)c(F)cc1Nc1ncc2c(n1)N(C(C)C)CC(F)(F)C(=O)N2C (stereo not drawn) [Compound 72, N(1-(2-(4-(5-chloro-4-((2,6-dioxopiperidin-3-yl)amino)-2-fluorophenyl)piperazin-1-yl)ethyl)piperidin-4-yl)-4-((7,7-difluoro-9-isopropyl-5-methyl-6-oxo-6,7,8,9-tetrahydro-5H-pyrimido[4,5-b][1,4]diazepin-2-yl)amino)-2-fluoro-5-methoxybenzamide]	++ (++: <0.5)	< 50	< 100	> 10000
COc1cc(C(=O)N[C@H]2CC[C@H](CN(C)C3CCN(c4cnc(C5CCC(=O)NC5=O)cc4C)CC3)CC2)ccc1Nc1ncc2c(n1)N(C(C)C)CC(F)(F)C(=O)N2C (stereo partly drawn) [Compound 16, 4-((7,7-difluoro-9-isopropyl-5-methyl-6-oxo-6,7,8,9-tetrahydro-5H-pyrimido[4,5-b][1,4]diazepin-2-yl)amino)-N-((1r,4r)-4-(((1-(6-(2,6-dioxopiperidin-3-yl)-4-methylpyridin-3-yl)piperidin-4-yl)(methyl)amino)methyl)cyclohexyl)-3-methoxybenzamide]	+++ (+++: <0.3)	< 30	< 30	> 10000
COc1cc(C(=O)NN2CCC(CCN3CCN(c4cc(OC)c(NC5CCC(=O)NC5=O)cc4F)CC3)CC2)ccc1Nc1ncc2c(n1)N(C1CCCC1)CC(F)(F)C(=O)N2C (stereo not drawn) [Compound 40, 4-((9-cyclopentyl-7,7-difluoro-5-methyl-6-oxo-6,7,8,9-tetrahydro-5H-pyrimido[4,5-b][1,4]diazepin-2-yl)amino)-N-(4-(2-(4-(4-((2,6-dioxopiperidin-3-yl)amino)-2-fluoro-5-methoxyphenyl)piperazin-1-yl)ethyl)piperidin-1-yl)-3-methoxybenzamide]	+++ (+++: <0.3)	< 30	< 30	> 10000
COc1cc(C(=O)NN2CCC(CCN3CCN(c4ccc(NC5CCC(=O)NC5=O)c(F)c4F)CC3)CC2)ccc1Nc1ncc2c(n1)N(C1CCCC1)CC(F)(F)C(=O)N2C (stereo not drawn) [Compound 71, 4-((9-cyclopentyl-7,7-difluoro-5-methyl-6-oxo-6,7,8,9-tetrahydro-5H-pyrimido[4,5-b][1,4]diazepin-2-yl)amino)-N-(4-(2-(4-(4-((2,6-dioxopiperidin-3-yl)amino)-2,3-difluorophenyl)piperazin-1-yl)ethyl)piperidin-1-yl)-3-methoxybenzamide]	+++ (+++: <0.3)	< 30	< 30	> 10000
COc1cc(C(=O)NC2CCN(CCC3CCN(c4ccc(NC5CCC(=O)NC5=O)cc4F)CC3)CC2)ccc1Nc1ncc2c(n1)N(C1CCCC1)CC(F)(F)C(=O)N2C (stereo not drawn) [Compound 30, 4-((9-cyclopentyl-7,7-difluoro-5-methyl-6-oxo-6,7,8,9-tetrahydro-5H-pyrimido[4,5-b][1,4]diazepin-2-yl)amino)-N-(1-(2-(1-(4-((2,6-dioxopiperidin-3-yl)amino)-2-fluorophenyl)piperidin-4-yl)ethyl)piperidin-4-yl)-3-methoxybenzamide]	+++ (+++: <0.3)	< 30	< 30	> 10000
COc1cc(-c2nnc(N3CCC(CCN4CCN(c5cc(F)c(NC6CCC(=O)NC6=O)cc5F)CC4)CC3)o2)ccc1Nc1ncc2c(n1)N(C1CCCC1)CC(F)(F)C(=O)N2C (stereo not drawn) [Compound 66, 3-((4-(4-(2-(1-(5-(4-((9-cyclopentyl-7,7-difluoro-5-methyl-6-oxo-6,7,8,9-tetrahydro-5H-pyrimido[4,5-b][1,4]diazepin-2-yl)amino)-3-methoxyphenyl)-1,3,4-oxadiazol-2-yl)piperidin-4-yl)ethyl)piperazin-1-yl)-2,5-difluorophenyl)amino)piperidine-2,6-dione]	++ (++: <0.5)	< 200	< 200	> 10000
COc1cc(-c2nnc(CN3CCC(CCN4CCN(c5cc(F)c(NC6CCC(=O)NC6=O)cc5F)CC4)CC3)o2)ccc1Nc1ncc2c(n1)N(C1CCCC1)CC(F)(F)C(=O)N2C (stereo not drawn) [Compound 65, 3-((4-(4-(2-(1-((5-(4-((9-cyclopentyl-7,7-difluoro-5-methyl-6-oxo-6,7,8,9-tetrahydro-5H-pyrimido[4,5-b][1,4]diazepin-2-yl)amino)-3-methoxyphenyl)-1,3,4-oxadiazol-2-yl)methyl)piperidin-4-yl)ethyl)piperazin-1-yl)-2,5-difluorophenyl)amino)piperidine-2,6-dione]	++ (++: <0.5)	< 100	< 200	> 10000
COc1cc(C(=O)N[C@H]2[C@@H]3CN(CCC4CCN(c5ccc(NC6CCC(=O)NC6=O)cc5)CC4)C[C@@H]32)ccc1Nc1ncc2c(n1)N(C(C)C)CC(F)(F)C(=O)N2C (stereo partly drawn) [Compound 24, 4-((7,7-difluoro-9-isopropyl-5-methyl-6-oxo-6,7,8,9-tetrahydro-5H-pyrimido[4,5-b][1,4]diazepin-2-yl)amino)-N-((1R,5S,6s)-3-(2-(1-(4-((2,6-dioxopiperidin-3-yl)amino)phenyl)piperidin-4-yl)ethyl)-3-azabicyclo[3.1.0]hexan-6-yl)-3-methoxybenzamide]	++ (++: <0.5)	< 50	< 100	> 10000
